Measured values from ChEMBL document CHEMBL4184186, “Targeting protein-protein interaction between MLL1 and reciprocal proteins for leukemia therapy” (Bioorg Med Chem, 2018).
Each block holds one compound with its values, some of them ahead of it.

Columns and labels:
Menin [1] = target: T1, Menin (Homo sapiens, UniProt O00255); assay: Displacement of FITC-MBM1 from full length human menin measured after 1 hr by fluorescence polarization assay
T1 sequence (O00255 whole entry): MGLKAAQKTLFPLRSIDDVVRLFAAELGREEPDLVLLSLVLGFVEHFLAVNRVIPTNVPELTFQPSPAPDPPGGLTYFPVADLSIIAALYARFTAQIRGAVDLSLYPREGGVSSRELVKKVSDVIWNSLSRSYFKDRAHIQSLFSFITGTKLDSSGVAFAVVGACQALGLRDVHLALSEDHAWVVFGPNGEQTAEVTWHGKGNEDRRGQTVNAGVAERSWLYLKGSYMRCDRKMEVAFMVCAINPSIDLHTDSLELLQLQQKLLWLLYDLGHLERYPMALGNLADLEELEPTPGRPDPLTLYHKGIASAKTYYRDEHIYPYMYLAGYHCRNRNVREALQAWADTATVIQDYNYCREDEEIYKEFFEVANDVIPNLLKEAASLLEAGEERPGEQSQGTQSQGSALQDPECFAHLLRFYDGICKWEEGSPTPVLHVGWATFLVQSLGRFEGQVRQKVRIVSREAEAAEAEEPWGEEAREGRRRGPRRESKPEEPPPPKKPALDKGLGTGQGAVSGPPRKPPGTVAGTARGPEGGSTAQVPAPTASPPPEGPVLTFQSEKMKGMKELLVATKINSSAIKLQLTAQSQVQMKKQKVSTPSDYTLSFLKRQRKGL

Menin [2] = target: T1, Menin; assay: Binding affinity to menin (unknown origin) by isothermal titration calorimetry
Menin [3] = target: T1, Menin; assay: Displacement of FITC-MBM1 from full length human menin measured after 2 hrs by fluorescence polarization assay
Menin [4] = target: T1, Menin
Description: Displacement of FITC-MBM1 from menin (unknown origin) measured after 1 hr by fluorescence polarization assay

[5] = target: Histone-lysine N-methyltransferase 2A (Homo sapiens, UniProt Q03164); assay: Inhibition of MLL1 binding to N-terminal His-tagged […] 23 deletion mutant (24 to 334 residues) (unknown origin) expressed in Escherichia coli Rosetta 2 (DE3) pLysS cells by fluorescence polarization assay
Sequence of Histone-lysine N-methyltransferase 2A (Q03164 1-2718 limits assumed, stated change not applied): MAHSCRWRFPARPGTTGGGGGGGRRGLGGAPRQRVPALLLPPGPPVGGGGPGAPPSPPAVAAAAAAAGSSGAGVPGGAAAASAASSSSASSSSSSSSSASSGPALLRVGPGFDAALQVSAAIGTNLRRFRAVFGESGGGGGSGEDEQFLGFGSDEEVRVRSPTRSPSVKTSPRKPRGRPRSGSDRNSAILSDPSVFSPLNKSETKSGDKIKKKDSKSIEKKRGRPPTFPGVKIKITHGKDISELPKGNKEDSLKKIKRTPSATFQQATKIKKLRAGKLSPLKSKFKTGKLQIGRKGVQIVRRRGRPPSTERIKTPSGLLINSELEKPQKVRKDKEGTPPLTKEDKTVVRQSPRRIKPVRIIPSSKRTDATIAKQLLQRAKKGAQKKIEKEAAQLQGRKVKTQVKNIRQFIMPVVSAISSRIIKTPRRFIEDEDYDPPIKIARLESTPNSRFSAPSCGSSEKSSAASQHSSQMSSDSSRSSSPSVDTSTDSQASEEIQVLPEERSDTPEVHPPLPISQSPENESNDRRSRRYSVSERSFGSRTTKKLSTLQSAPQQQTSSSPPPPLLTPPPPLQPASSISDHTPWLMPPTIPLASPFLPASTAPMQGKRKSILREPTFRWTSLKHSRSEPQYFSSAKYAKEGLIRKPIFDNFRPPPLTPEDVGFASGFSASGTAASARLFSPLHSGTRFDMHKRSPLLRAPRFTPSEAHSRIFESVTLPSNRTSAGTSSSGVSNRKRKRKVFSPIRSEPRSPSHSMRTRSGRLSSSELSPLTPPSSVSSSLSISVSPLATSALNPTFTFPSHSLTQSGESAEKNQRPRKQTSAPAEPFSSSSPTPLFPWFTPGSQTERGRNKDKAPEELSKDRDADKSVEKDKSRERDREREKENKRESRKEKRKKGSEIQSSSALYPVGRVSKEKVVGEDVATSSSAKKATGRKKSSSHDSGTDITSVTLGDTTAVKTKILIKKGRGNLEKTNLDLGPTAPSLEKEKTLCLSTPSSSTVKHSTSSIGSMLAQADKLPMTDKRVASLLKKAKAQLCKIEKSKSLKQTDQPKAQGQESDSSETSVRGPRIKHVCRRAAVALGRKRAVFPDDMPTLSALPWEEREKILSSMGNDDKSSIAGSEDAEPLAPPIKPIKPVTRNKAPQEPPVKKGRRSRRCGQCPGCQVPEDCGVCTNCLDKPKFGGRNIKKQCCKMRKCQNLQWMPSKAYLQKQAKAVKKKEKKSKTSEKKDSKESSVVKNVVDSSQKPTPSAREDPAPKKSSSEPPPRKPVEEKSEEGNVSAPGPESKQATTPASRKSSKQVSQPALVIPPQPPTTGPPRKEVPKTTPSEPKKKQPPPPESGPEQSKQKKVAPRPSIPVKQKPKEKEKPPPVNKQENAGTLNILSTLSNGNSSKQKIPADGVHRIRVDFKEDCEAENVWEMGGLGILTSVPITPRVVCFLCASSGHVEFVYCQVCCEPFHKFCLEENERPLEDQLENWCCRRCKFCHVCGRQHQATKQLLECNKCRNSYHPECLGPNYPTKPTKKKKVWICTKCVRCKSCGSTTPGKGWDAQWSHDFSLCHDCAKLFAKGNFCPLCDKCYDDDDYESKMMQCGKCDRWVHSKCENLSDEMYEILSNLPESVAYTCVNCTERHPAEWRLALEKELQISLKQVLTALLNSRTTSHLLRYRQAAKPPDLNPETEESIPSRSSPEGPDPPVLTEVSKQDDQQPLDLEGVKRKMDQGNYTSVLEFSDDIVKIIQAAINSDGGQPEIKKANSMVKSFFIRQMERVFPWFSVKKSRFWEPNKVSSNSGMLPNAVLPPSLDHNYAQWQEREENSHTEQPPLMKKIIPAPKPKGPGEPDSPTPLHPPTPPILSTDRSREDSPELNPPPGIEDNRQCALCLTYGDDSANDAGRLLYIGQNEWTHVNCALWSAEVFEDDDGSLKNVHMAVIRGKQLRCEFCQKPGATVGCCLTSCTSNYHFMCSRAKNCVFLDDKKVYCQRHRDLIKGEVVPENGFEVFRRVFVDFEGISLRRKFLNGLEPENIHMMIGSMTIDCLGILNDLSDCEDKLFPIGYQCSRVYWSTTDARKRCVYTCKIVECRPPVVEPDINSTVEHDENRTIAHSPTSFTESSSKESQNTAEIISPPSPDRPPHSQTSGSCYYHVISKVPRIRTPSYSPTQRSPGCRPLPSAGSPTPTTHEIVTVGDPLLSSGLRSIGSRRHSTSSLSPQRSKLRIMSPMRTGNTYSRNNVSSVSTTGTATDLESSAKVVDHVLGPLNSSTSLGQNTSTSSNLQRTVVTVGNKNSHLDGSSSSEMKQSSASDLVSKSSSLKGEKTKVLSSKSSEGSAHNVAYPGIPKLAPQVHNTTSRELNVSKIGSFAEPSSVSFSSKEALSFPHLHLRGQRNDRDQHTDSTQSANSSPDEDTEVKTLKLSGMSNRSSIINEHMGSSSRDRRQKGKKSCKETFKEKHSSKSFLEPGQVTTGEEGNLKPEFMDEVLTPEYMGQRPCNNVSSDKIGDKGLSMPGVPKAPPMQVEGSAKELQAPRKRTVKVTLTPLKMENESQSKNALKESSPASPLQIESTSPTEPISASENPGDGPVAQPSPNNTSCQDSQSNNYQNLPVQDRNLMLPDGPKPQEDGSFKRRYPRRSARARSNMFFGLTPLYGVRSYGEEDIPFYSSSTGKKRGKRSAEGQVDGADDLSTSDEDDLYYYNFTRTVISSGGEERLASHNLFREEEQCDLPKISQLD
Sequence of Histone-lysine N-methyltransferase 2A (Q03164 2719-3969 limits assumed, stated change not applied): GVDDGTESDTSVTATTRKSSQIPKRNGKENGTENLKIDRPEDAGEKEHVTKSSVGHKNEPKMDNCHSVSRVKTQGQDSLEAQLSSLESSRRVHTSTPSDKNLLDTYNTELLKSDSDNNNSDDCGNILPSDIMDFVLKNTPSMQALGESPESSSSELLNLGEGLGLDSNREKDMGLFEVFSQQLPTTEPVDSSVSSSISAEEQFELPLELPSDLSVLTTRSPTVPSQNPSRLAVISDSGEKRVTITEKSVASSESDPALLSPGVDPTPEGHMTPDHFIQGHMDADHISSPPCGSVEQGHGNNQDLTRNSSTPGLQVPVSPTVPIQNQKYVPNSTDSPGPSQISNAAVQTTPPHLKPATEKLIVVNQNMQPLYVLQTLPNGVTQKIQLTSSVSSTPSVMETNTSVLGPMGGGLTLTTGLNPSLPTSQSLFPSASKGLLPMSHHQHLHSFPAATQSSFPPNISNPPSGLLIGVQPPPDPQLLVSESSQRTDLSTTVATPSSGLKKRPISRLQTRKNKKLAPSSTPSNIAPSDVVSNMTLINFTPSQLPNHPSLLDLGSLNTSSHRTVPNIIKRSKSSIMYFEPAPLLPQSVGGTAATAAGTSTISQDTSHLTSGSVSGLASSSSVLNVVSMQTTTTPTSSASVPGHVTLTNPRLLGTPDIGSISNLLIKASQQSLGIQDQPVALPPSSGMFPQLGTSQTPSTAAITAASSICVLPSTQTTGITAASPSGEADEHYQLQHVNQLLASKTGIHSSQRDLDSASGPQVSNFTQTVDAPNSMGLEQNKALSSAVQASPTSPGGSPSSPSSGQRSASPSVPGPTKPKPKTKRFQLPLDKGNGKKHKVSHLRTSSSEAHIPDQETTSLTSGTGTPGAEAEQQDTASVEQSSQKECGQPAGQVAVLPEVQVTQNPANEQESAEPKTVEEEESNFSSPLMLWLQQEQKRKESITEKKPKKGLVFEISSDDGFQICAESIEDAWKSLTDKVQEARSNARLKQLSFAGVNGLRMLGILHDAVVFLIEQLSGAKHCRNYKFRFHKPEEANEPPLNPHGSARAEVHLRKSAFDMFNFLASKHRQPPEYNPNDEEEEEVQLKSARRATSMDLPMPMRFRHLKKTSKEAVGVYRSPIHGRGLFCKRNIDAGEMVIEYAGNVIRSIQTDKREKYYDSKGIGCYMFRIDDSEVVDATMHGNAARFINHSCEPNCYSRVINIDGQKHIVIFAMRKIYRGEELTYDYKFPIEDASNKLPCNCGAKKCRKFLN

- IC50 (Menin [1]): 14.7 nM
- Kd (Menin [2]): 9.3 nM
Structure (SMILES): Cc1c(CN2CCC(Nc3ncnc4sc(CC(F)(F)F)cc34)CC2)ccc2c1cc(C#N)n2Cc1cn[nH]c1

Structure (SMILES): NCC(CCN1CC=C(c2ccc(Cl)cc2)CC1)(c1ccccc1)C1CCCC1 (stereo not drawn)
- IC50 (Menin [3]): 830 nM
- Ki (Menin [3]): 80 nM

- IC50 (Menin [4]): 1 nM
Structure (SMILES): O=c1cccc2n1[C@@H]1C[C@H](C2)CN(CC(O)CCCc2ccccc2)C1 (stereo partly drawn)

Structure (SMILES): CN(C)C(=O)C(CCN1CCC(O)(c2ccc(Cl)cc2)CC1)(c1ccccc1)c1ccccc1 [LOPERAMIDE]
- IC50 (Menin [3]): 69000 nM

- IC50 [5]: 4.5 nM
- Ki [5]: < 1 nM
Structure (SMILES): CCC(CC)(NC(=O)C(C)C)C(=O)N[C@@H](CCCNC(=N)N)C(=O)NC1(C(=O)NC(c2ccc(Cl)cc2)c2ccc(Cl)cc2)CCCC1
